According to PubChem BioAssay AID248 (DTP/NCI, 2004):
Several values for one entry are separate records, joined by “and”; a condition that tells them apart may be missing. Equal entries are not always repeated. Toxic doses and inconclusive results are not listed.

System: L1210 leukemia ip in BDF1 mice, survival T/C
Experiment: NCI In Vivo Anticancer Drug Screen. Data for tumor model L1210 Leukemia (intraperitoneal) in B6D2F1 (BDF1) mice
Settings: endpoint: mean survival time, higher = longer survival
How it was run: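 Value reflects the ratio of survival in compound-treated mice to survival in vehicle-treated controls, with both groups carrying the same transplanted tumor.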

[1] = dose: 100.0 mg/kg/injection, schedule: Q01DX009 (ip), vehicle: saline with Tween-80
[2] = dose: 200.0 mg/kg/injection, schedule: Q01DX009 (ip), vehicle: saline with Tween-80
[3] = dose: 400.0 mg/kg/injection, schedule: Q01DX009 (ip), vehicle: saline with Tween-80
[4] = dose: 100.0 mg/kg/injection, schedule: Q04DX002 (ip), vehicle: Klucel (hydroxypropylcellulose) (HPC)
[5] = dose: 200.0 mg/kg/injection, schedule: Q04DX002 (ip), vehicle: Klucel (hydroxypropylcellulose) (HPC)
[6] = dose: 400.0 mg/kg/injection, schedule: Q04DX002 (ip), vehicle: Klucel (hydroxypropylcellulose) (HPC)
[7] = dose: 100.0 mg/kg/injection, schedule: Q04DX003 (ip), vehicle: saline with Tween-80
[8] = dose: 200.0 mg/kg/injection, schedule: Q04DX003 (ip), vehicle: saline with Tween-80
[9] = dose: 400.0 mg/kg/injection, schedule: Q04DX003 (ip), vehicle: saline with Tween-80
[10] = dose: 50.0 mg/kg/injection, schedule: Q01DX001 (ip), vehicle: saline
[11] = dose: 100.0 mg/kg/injection, schedule: Q01DX001 (ip), vehicle: saline
[12] = dose: 100.0 mg/kg/injection, schedule: Q04DX003 (ip), vehicle: Klucel (hydroxypropylcellulose) (HPC)
[13] = dose: 200.0 mg/kg/injection, schedule: Q04DX003 (ip), vehicle: Klucel (hydroxypropylcellulose) (HPC)
[14] = dose: 100.0 mg/kg/injection, schedule: Q04DX003 (ip), vehicle: saline
[15] = dose: 200.0 mg/kg/injection, schedule: Q04DX003 (ip), vehicle: saline
[16] = dose: 400.0 mg/kg/injection, schedule: Q04DX003 (ip), vehicle: saline
[17] = dose: 50.0 mg/kg/injection, schedule: Q01DX009 (ip), vehicle: saline with Tween-80
[18] = dose: 100.0 mg/kg/injection, schedule: Q01DX009 (ip), vehicle: saline

Compound: N#Cc1c(Oc2ccccc2)c(F)c(Oc2ccccc2)c(F)c1Oc1ccccc1
- T/C [1]: 100 % of control
- T/C [2]: 91 % of control
- T/C [3]: 92 % of control

Compound: CC(C)(C)N1CCC1CN (stereo unspecified)
- T/C (dose: 75.0 mg/kg/injection, schedule: Q01DX001 (ip), vehicle: saline): 104 % of control
- T/C (dose: 150.0 mg/kg/injection, schedule: Q01DX001 (ip), vehicle: saline): 102 % of control
- T/C (dose: 300.0 mg/kg/injection, schedule: Q01DX001 (ip), vehicle: saline): 102 % of control

Compound: CCOC(=N)CC(=N)OCC
- T/C (dose: 100.0 mg/kg/injection, schedule: Q01DX009 (ip), vehicle: water): 96 % of control
- T/C (dose: 100.0 mg/kg/injection, schedule: Q04DX003 (ip), vehicle: water): 97 % of control
- T/C (dose: 200.0 mg/kg/injection, schedule: Q01DX009 (ip), vehicle: water): 101 % of control
- T/C (dose: 200.0 mg/kg/injection, schedule: Q04DX003 (ip), vehicle: water): 93 % of control
- T/C (dose: 400.0 mg/kg/injection, schedule: Q01DX009 (ip), vehicle: water): 97 % of control
- T/C (dose: 400.0 mg/kg/injection, schedule: Q04DX003 (ip), vehicle: water): 97 % of control

Compound: CCc1cc2oc(C)c(C)c2c(N=Nc2ccccc2[N+](=O)[O-])c1O
- T/C [4]: 96 % of control
- T/C [5]: 96 % of control
- T/C [6]: 93 % of control

Compound: COc1ccc(OC)c(/C=C/C(=O)NCC(O)CO)c1 (stereo unspecified)
- T/C [7]: 105 % of control
- T/C [8]: 105 % of control
- T/C [9]: 103 % of control

Compound: COc1ccc(CCC2=NCCN2)cc1OC
- T/C [7]: 103 % of control
- T/C [8]: 97 % of control

Compound: NC(=O)COc1ccc(Cl)c2ccccc12
- T/C (dose: 100.0 mg/kg/injection, schedule: Q01DX001 (ip), vehicle: Klucel (hydroxypropylcellulose) (HPC)): 96 % of control
- T/C [4]: 86 % of control
- T/C (dose: 200.0 mg/kg/injection, schedule: Q01DX001 (ip), vehicle: Klucel (hydroxypropylcellulose) (HPC)): 102 % of control
- T/C [5]: 99 % of control
- T/C (dose: 400.0 mg/kg/injection, schedule: Q01DX001 (ip), vehicle: Klucel (hydroxypropylcellulose) (HPC)): 86 % of control
- T/C [6]: 99 % of control

Compound: [O-]/[N+](=C\c1cccc(Cl)c1)c1ccccc1
- T/C [10]: 102 % of control
- T/C [11]: 100 % of control
- T/C [12]: 107 % of control
- T/C (dose: 200.0 mg/kg/injection, schedule: Q01DX001 (ip), vehicle: saline): 100 % of control
- T/C [13]: 100 % of control
- T/C (dose: 400.0 mg/kg/injection, schedule: Q01DX001 (ip), vehicle: saline): 112 % of control

Compound: CCOc1ccc(OCC)c(NC(=O)Nc2ccc(F)c([N+](=O)[O-])c2)c1
- T/C (dose: 100.0 mg/kg/injection, schedule: Q01DX009 (ip), vehicle: Klucel (hydroxypropylcellulose) (HPC)): 101 % of control
- T/C (dose: 200.0 mg/kg/injection, schedule: Q01DX009 (ip), vehicle: Klucel (hydroxypropylcellulose) (HPC)): 93 % of control
- T/C (dose: 400.0 mg/kg/injection, schedule: Q01DX009 (ip), vehicle: Klucel (hydroxypropylcellulose) (HPC)): 87 % of control

Compound: CC(Br)C(=O)O (stereo unspecified)
- T/C [10]: 94 % of control
- T/C [11]: 111 % of control

Compound: NNC(=O)c1cc2ccncc2c2sc3ccccc3c12
- T/C [14]: 92 % of control
- T/C [15]: 88 % of control
- T/C [16]: 97 % of control

Compound: CCCCCCCCCC(=O)N1CCC(CCCc2ccccc2)CC1
- T/C (dose: 75.0 mg/kg/injection, schedule: Q01DX001 (ip), vehicle: carboxymethylcellulose (CMC)): 95 % of control
- T/C (dose: 150.0 mg/kg/injection, schedule: Q01DX001 (ip), vehicle: carboxymethylcellulose (CMC)): 92 % of control
- T/C (dose: 300.0 mg/kg/injection, schedule: Q01DX001 (ip), vehicle: carboxymethylcellulose (CMC)): 95 % of control

Compound: N#CC1C=CCC1 (stereo unspecified)
- T/C [17]: 100 % of control
- T/C [1]: 100 % of control

Compound: CNC(=O)Oc1cccc(NC(=O)OCC(C)(C)C)c1
- T/C [7]: 96 % of control
- T/C [8]: 102 % of control
- T/C [9]: 97 % of control

Compound: Cn1cnc2c(C#N)c(C#N)nn2c1=O
- T/C (dose: 50.0 mg/kg/injection, schedule: Q01DX001 (ip), vehicle: carboxymethylcellulose (CMC)): 93 % of control
- T/C (dose: 100.0 mg/kg/injection, schedule: Q01DX001 (ip), vehicle: carboxymethylcellulose (CMC)): 90 % of control
- T/C (dose: 200.0 mg/kg/injection, schedule: Q01DX001 (ip), vehicle: carboxymethylcellulose (CMC)): 93 % of control

Compound: CCN(O)C(N)=O
- T/C (dose: 34.5 mg/kg/injection, schedule: Q01DX009 (ip), vehicle: saline): 107 % of control
- T/C (dose: 52.0 mg/kg/injection, schedule: Q01DX009 (ip), vehicle: saline): 111 % of control
- T/C (dose: 62.0 mg/kg/injection, schedule: Q03HX024 (ip), vehicle: saline): 101 % of control
- T/C (dose: 78.0 mg/kg/injection, schedule: Q01DX009 (ip), vehicle: saline): 113 % of control
- T/C (dose: 117.0 mg/kg/injection, schedule: Q01DX009 (ip), vehicle: saline): 110 % of control and 122 % of control (2×)
- T/C (dose: 125.0 mg/kg/injection, schedule: Q03HX024 (ip), vehicle: saline): 98 % of control
- T/C (dose: 178.0 mg/kg/injection, schedule: Q01DX009 (ip), vehicle: saline): 112 % of control
- T/C (dose: 600.0 mg/kg/injection, schedule: Q01DX009 (ip), vehicle: saline): 166 % of control and 167 % of control

Compound: O=C/C=C/c1cccnc1
- T/C (dose: 25.0 mg/kg/injection, schedule: Q01DX009 (ip), vehicle: saline with Tween-80): 92 % of control
- T/C [17]: 100 % of control
- T/C [1]: 101 % of control
- T/C [2]: 99 % of control

Compound: OC(Cc1cccc(/C=N/N2CCOCC2)n1)(C(F)(F)F)C(F)(F)F
- T/C [1]: 91 % of control
- T/C [2]: 98 % of control
- T/C [3]: 89 % of control

Compound: O=c1cc(NCc2cccc(Cl)c2)[nH]c(=O)[nH]1
- T/C (dose: 100.0 mg/kg/injection, schedule: Q01DX001 (ip), vehicle: saline with Tween-80): 91 % of control
- T/C (dose: 200.0 mg/kg/injection, schedule: Q01DX001 (ip), vehicle: saline with Tween-80): 86 % of control
- T/C (dose: 400.0 mg/kg/injection, schedule: Q01DX001 (ip), vehicle: saline with Tween-80): 89 % of control

Compound: COC1=NS(=O)(=O)N=C(C)O1
- T/C [12]: 91 % of control
- T/C [13]: 102 % of control
- T/C (dose: 400.0 mg/kg/injection, schedule: Q04DX003 (ip), vehicle: Klucel (hydroxypropylcellulose) (HPC)): 93 % of control

Compound: CCOC(=O)C1(C)OCCO1
- T/C [18]: 101 % of control
- T/C [14]: 103 % of control
- T/C (dose: 200.0 mg/kg/injection, schedule: Q01DX009 (ip), vehicle: saline): 100 % of control
- T/C [15]: 96 % of control
- T/C (dose: 400.0 mg/kg/injection, schedule: Q01DX009 (ip), vehicle: saline): 95 % of control
- T/C [16]: 99 % of control

Compound: CCN(CC)CC[n+]1ccccc1
- T/C (dose: 100.0 mg/kg/injection, schedule: Q04DX002 (ip), vehicle: saline): 93 % of control
- T/C (dose: 200.0 mg/kg/injection, schedule: Q04DX002 (ip), vehicle: saline): 100 % of control

Compound: O=S(=O)(Cc1ccccc1)C(I)c1ccccc1 (stereo unspecified)
- T/C [4]: 108 % of control
- T/C [5]: 122 % of control
- T/C [6]: 105 % of control

Compound: O=C(OCCCCCCCOC(=O)c1cccc([N+](=O)[O-])c1)c1cccc([N+](=O)[O-])c1
- T/C (dose: 100.0 mg/kg/injection, schedule: Q01DX001 (ip), vehicle: other): 98 % of control
- T/C (dose: 200.0 mg/kg/injection, schedule: Q01DX001 (ip), vehicle: other): 101 % of control
- T/C (dose: 400.0 mg/kg/injection, schedule: Q01DX001 (ip), vehicle: other): 107 % of control

Compound: CC1CC(C)(C)CC2(C1)OCC(CCl)O2 (stereo unspecified)
- T/C (dose: 100.0 mg/kg/injection, schedule: Q04DX003 (ip), vehicle: saline sonified): 100 % of control
- T/C (dose: 200.0 mg/kg/injection, schedule: Q04DX003 (ip), vehicle: saline sonified): 98 % of control
- T/C (dose: 400.0 mg/kg/injection, schedule: Q04DX003 (ip), vehicle: saline sonified): 96 % of control

Compound: O=COCC(O)COC=O
- T/C (dose: 12.5 mg/kg/injection, schedule: Q01DX009 (ip), vehicle: saline): 101 % of control
- T/C (dose: 25.0 mg/kg/injection, schedule: Q01DX009 (ip), vehicle: saline): 104 % of control
- T/C (dose: 50.0 mg/kg/injection, schedule: Q01DX009 (ip), vehicle: saline): 87 % of control
- T/C [18]: 101 % of control
- T/C [14]: 95 % of control
- T/C [15]: 90 % of control
- T/C [16]: 97 % of control
